Patent US20240299384A1, “METHODS FOR TREATING PULMONARY HYPERTENSION IN PATIENTS WITH LEFT VENTRICULAR ASSIST DEVICE IMPLANTATION” (ACTELION PHARMACEUTICALS LTD, priority 2021, published 2024)

How the values were obtained:
[1] = cited from earlier work
[2] = humans, cited from earlier work
[3] = tested on: healthy male subjects; assay: Phase 1 open-label study of 75 mg qd macitentan with and without up-titration: safety; type: in vivo, human
Protocol: This is a single-sequence, open-label, single-center, Phase 1 study in healthy male subjects. The study assessed the effect of 75 mg qd administration of macitentan. The study includes a screening phase of 21 days before the first macitentan administration, followed by an open-label treatment phase. Randomization was not used and subjects received the same treatment.
• 29 subjects were enrolled.
Administration of 75 mg qd macitentan started on Day 1. Macitentan was administered every day in the morning between 8:00 and 11:00 with 240 mL of noncarbonated water. One 75-mg macitentan film-coated tablet was thus administered as multiple qd oral doses under fed conditions.
Subjects were planned to take macitentan 75 mg for 15 days. However the study was interrupted on the morning of day 8, i.e. when subjects had received 7 doses of macitentan 75 mg.
Macitentan was administered in an up-titration regimen in the morning between 8:00 and 11:00 with 240 mL of noncarbonated water. One macitentan film-coated tablet (10 mg, 37.5 mg or 75 mg) was administered as multiple qd oral doses under fed conditions on Days 1-9 and Days 11-12, and under fasted conditions on Days 10 and 13. The up-titration regimen consists of 2 qd doses of 10 mg macitentan and 3 qd doses of 37.5 mg macitentan followed by 8 qd doses of 75 mg macitentan. On Days −4, −3, 10 and 13 (i.e., the days when dosing occurred under fasted conditions), no fluid intake apart from the water taken at the time of macitentan administration was allowed from 1 hour before until 1 hour after administration of macitentan.
All reported AEs with onset during the treatment phase were included in the analysis. The effects on cardiovascular variables were evaluated and the following variables were collected: PR (ms), QRS (ms), QT (ms), QTcB (ms), QTcF (ms), heart rate (bpm), and RR. The normal range for vital signs is defined as follows: • Systolic blood pressure: 100-140 mmHg • Diastolic blood pressure: 60-90 mmHg • Pulse rate: 45-90 bpm • Respiratory rate: 8-20 per minute • Body temperature: 35.0° C. to 37.5° C.
An AE is any untoward medical occurrence, i.e., any unfavorable and unintended sign (including an abnormal finding), symptom, or disease temporally associated with the use of macitentan. A treatment-emergent AE is any occurrence that is new in onset or aggravated in severity from the baseline condition. The following are used to assess all AEs: • Related: There is a reasonable causal relationship between macitentan administration and the AE. • Not Related: There is not a reasonable causal relationship between macitentan administration and the AE.
An assessment of AE severity grade was made using the following general categorical descriptors: • Mild: Awareness of symptoms that are easily tolerated, causing minimal discomfort and not interfering with everyday activities. • Moderate: Sufficient discomfort is present to cause interference with normal activity. • Severe: Extreme distress, causing significant impairment of functioning or incapacitation. Prevents normal everyday activities.

[4] = 75 mg qd, no titration, 6 subjects

Question: With `CCCNS(=O)(=O)Nc1ncnc(OCCOc2ncc(Br)cn2)c1-c1ccc(Br)cc1` [Macitentan, propylsulfamic acid [5-(4-bromo-phenyl)-6-[2-(5-bromo-pyrimidin-2-yloxy)-ethoxy]-pyrimidin-4-yl]-amide] as the molecule, how does the “Flushing/feeling of warmth/redness of face and/or hands, Frequency observed with macitentan 10 mg” value [1] read?
Answer: Uncommon

Question: And the “Headache, Frequency observed with macitentan 10 mg” value [1]?
Answer: Very

Question: What about the “Photophobia, Frequency observed with macitentan 10 mg” value [1] of the same molecule?
Answer: Not known

Question: And the “Sinusitis/rhinitis/nasal congestion, Frequency observed with macitentan 10 mg” value [1]?
Answer: Common

Question: What about the “time to steady state” value ([2]; 10 mg oral dose once a day) of the same molecule?
Answer: third day

Question: What about the “absorption into the plasma” value [2] of the same molecule?
Answer: absorbed slowly

Question: What about the half-life [2] of the same molecule?
Answer: about 16 hours

Question: What about the reduction in hemoglobin ([3]; 75 mg qd) of the same molecule?
Answer: ≤ 2 g/dL

Question: What about the “vital signs, ECG and lab parameters” value ([3]; 75 mg qd) of the same molecule?
Answer: no clinically significant changes

Question: And the “severity of AEs overall” value ([3]; 75 mg qd, AEs reported from Day 2 onwards)?
Answer: mainly mild

Question: What about the “Photophobia, Severity of AEs (No titration)” value [3, 4] of the same molecule?
Answer: All mild

Question: What about the “Sinusitis/rhinitis/nasal congestion, Severity of AEs (No titration)” value [3, 4] of the same molecule?
Answer: All mild

Question: What about the “tolerability with up-titration regimen” value ([3]; 75 mg, up-titration vs no up-titration) of the same molecule?
Answer: improved tolerability

Question: What about the “resolution of AEs” value ([3]; four days after stopping macitentan) of the same molecule?
Answer: most of the AEs resolved

Question: What about the “Sinusitis/rhinitis/nasal congestion, Severity of AEs (With titration)” value ([3]; up-titration 10 mg, 37.5 mg, 75 mg qd, 6 subjects) of the same molecule?
Answer: Mild, less

Question: What about the completion of treatment ([3]; up-titration regimen cohort) of the same molecule?
Answer: All subjects completed treatment
